The values that follow come from ChEMBL document CHEMBL1137488, “Strategies toward improving the brain penetration of macrocyclic tertiary carbinamine BACE-1 inhibitors” (Bioorg Med Chem Lett, 2007).

One data set deals with P-glycoprotein. The data set can be described thus: Apparent permeability in human KBV1 cells overexpressing P-glycoprotein. The data set is classed as ADME, cell-based, KB-V1.
Conditions: not given
Regarding `CN(c1cc2cc(n1)CCC(c1ccccc1)CCc1cccc(c1)C[C@@](C)(N)C(=O)OC2)S(C)(=O)=O` (stereo partly drawn), the Papp (as a rule, a coefficient for how fast a substance crosses the barrier) was 9 ×10⁻⁶ cm/s. The same measure, in the same setting: for `CC1CCc2cccc(c2)C[C@@](C)(N)C(=O)OCc2cc(nc(N(C)S(C)(=O)=O)c2)CC1` (stereo partly drawn) the value was 14 ×10⁻⁶ cm/s; for `CN(c1cc2cc(n1)N(Cc1ccccc1)CCCCc1cccc(c1)C[C@@](C)(N)C(=O)OC2)S(C)(=O)=O`, 20 ×10⁻⁶ cm/s; for `CC1CCc2cccc(c2)C[C@@](C)(N)C(=O)OCc2cc(cc(N(C)S(C)(=O)=O)c2)CC1` (stereo partly drawn), 16 ×10⁻⁶ cm/s. Still for that read-out and setting: for `CN(c1cc2cc(n1)N(CC1CC1)CCCCc1cccc(c1)C[C@@](C)(N)C(=O)OC2)S(C)(=O)=O` the value was 8 ×10⁻⁶ cm/s; for `CN(c1cc2cc(n1)CCCCCc1cccc(c1)C[C@@](C)(N)C(=O)OC2)S(C)(=O)=O`, 29 ×10⁻⁶ cm/s. Regarding `CN(c1cc2cc(n1)NCCCCc1cccc(c1)C[C@@](C)(N)C(=O)OC2)S(C)(=O)=O`, the Papp worked out at 11 ×10⁻⁶ cm/s.

Test system in the next data set: not listed separately
The data set can be described thus: Drug level in mouse brain at 30 mg/kg, ip after 2 hrs. To be noted: read-out: Drug uptake. It counts as ADME, organism-based. On the set-up: dose 30 mg/kg, route intraperitoneal.
As to `CC1CCc2cccc(c2)C[C@@](C)(N)C(=O)OCc2cc(nc(N(C)S(C)(=O)=O)c2)CC1` (stereo partly drawn), the concentration at 2 h was 637 nM.
